Assay: mn = molality of the nth substance listed, in mol/kg
Details: 298.15 K, Liquid

Nc1nc(O)c2ncn([C@H]3C[C@H](O)[C@@H](CO)O3)c2n1 [2'-deoxyguanosine] + O
speed of sound [m/s]
Details	100 kPa	10000 kPa	20000 kPa	40000 kPa	60000 kPa	80000 kPa	100000 kPa
m1 = 0.009827	1497.4	–	–	–	–	–	–
m1 = 0.01011	1497.4	–	–	–	–	–	–
m1 = 0.01028	1497.4	–	–	–	–	–	–
m1 = 0.0103	1497.4	1514	1530.8	1564.4	1597.9	1631.3	1664.4
m1 = 0.01036	–	–	1530.8	1564.4	1597.9	1631.3	1664.4
m1 = 0.01043	–	1514	1530.8	1564.4	1597.9	1631.3	1664.4
m1 = 0.01048	1497.4	1514	1530.8	1564.4	1597.9	1631.3	1664.4
m1 = 0.01051	1497.4	–	–	–	–	–	–
m1 = 0.01057	1497.4	–	–	–	–	–	–
m1 = 0.01059	–	1514.1	1530.9	–	1597.9	1631.3	1664.5
m1 = 0.01062	–	1514.1	1530.9	1564.4	1597.9	1631.3	1664.5
m1 = 0.01068	–	1514.1	1530.9	–	1597.9	1631.3	1664.5
m1 = 0.0107	1497.5	–	–	–	–	–	–
m1 = 0.01075	–	1514.1	1530.9	1564.4	1597.9	1631.3	1664.5

O=c1[nH]cnc2c1ncn2[C@H]1C[C@H](O)[C@@H](CO)O1 [2'-deoxyinosine] + O
Details	speed of sound [m/s]
100 kPa, m1 = 0.02199	1498.1
100 kPa, m1 = 0.02301	1498.2
100 kPa, m1 = 0.024	1498.3
100 kPa, m1 = 0.02493	1498.3
100 kPa, m1 = 0.02599	1498.4
100 kPa, m1 = 0.02701	1498.5
100 kPa, m1 = 0.02813	1498.6
100 kPa, m1 = 0.02896	1498.6
100 kPa, m1 = 0.02994	1498.7
10000 kPa, m1 = 0.02283	1514.8
10000 kPa, m1 = 0.0239	1514.9
10000 kPa, m1 = 0.02481	1514.9
10000 kPa, m1 = 0.02661	1515
10000 kPa, m1 = 0.02749	1515.1
10000 kPa, m1 = 0.02755	1515.1
10000 kPa, m1 = 0.02877	1515.2
10000 kPa, m1 = 0.02944	1515.2
20000 kPa, m1 = 0.02283	1531.6
20000 kPa, m1 = 0.0239	1531.7
20000 kPa, m1 = 0.02481	1531.7
20000 kPa, m1 = 0.02661	1531.9
20000 kPa, m1 = 0.02749	1531.9
20000 kPa, m1 = 0.02755	1531.9
20000 kPa, m1 = 0.02877	1532
20000 kPa, m1 = 0.02944	1532
40000 kPa, m1 = 0.02283	1565.2
40000 kPa, m1 = 0.0239	1565.3
40000 kPa, m1 = 0.02481	1565.3
40000 kPa, m1 = 0.02661	1565.5
40000 kPa, m1 = 0.02749	1565.5
40000 kPa, m1 = 0.02755	1565.5
40000 kPa, m1 = 0.02877	1565.6
40000 kPa, m1 = 0.02944	1565.6
60000 kPa, m1 = 0.02283	1598.7
60000 kPa, m1 = 0.0239	1598.8
60000 kPa, m1 = 0.02481	1598.9
60000 kPa, m1 = 0.02661	1599
60000 kPa, m1 = 0.02749	1599
60000 kPa, m1 = 0.02755	1599
60000 kPa, m1 = 0.02877	1599.1
60000 kPa, m1 = 0.02944	1599.2
80000 kPa, m1 = 0.02283	1632.1
80000 kPa, m1 = 0.0239	1632.1
80000 kPa, m1 = 0.02481	1632.2
80000 kPa, m1 = 0.02661	1632.3
80000 kPa, m1 = 0.02749	1632.4
80000 kPa, m1 = 0.02755	1632.4
80000 kPa, m1 = 0.02877	1632.5
80000 kPa, m1 = 0.02944	1632.5
100000 kPa, m1 = 0.02283	1665.2
100000 kPa, m1 = 0.0239	1665.3
100000 kPa, m1 = 0.02481	1665.3
100000 kPa, m1 = 0.02661	1665.5
100000 kPa, m1 = 0.02749	1665.5
100000 kPa, m1 = 0.02755	1665.5
100000 kPa, m1 = 0.02877	1665.6
100000 kPa, m1 = 0.02944	1665.6
